Format in all cases: biochemical
Assay [1] has as its target MMP-13 (Homo sapiens, UniProt P45452). As to the kind of experiment: MMP-13 inhibition (thiopeptide or fluorescent peptide substrate assay). Particulars: for inhibition at 1 µM: read-out: MMP-13 % inhibition, footnote: 1µM.
The target of assay [2] is MMP-9 (Homo sapiens, UniProt P14780). As to the kind of experiment: MMP-9 inhibition (thiopeptide or fluorescent peptide substrate assay). Particulars: for IC50: read-out: MMP-9 IC50; for inhibition at 1 µM: read-out: MMP-9 % inhibition, footnote: 1µM.
Experimental: The enzyme activity is measured by the rate of the color increase. The thiopeptide substrate is made up fresh as a 20 mM stock in 100% DMSO and the DTNB is dissolved in 100% DMSO as a 100 mM stock and stored in the dark at room temperature. Both the substrate and DTNB are diluted together to 1 mM with substrate buffer (50 mM HEPES pH 7.5, 5 mM CaCl2) before use. […] Alternatively, a fluorescent peptide substrate is used. In this assay, the peptide substrate contains a fluorescent group and a quenching group. Upon cleavage of the substrate by an MMP, the fluorescence that is generated is quantitated on the fluorescence plate reader. […] The substrate is dissolved in methanol and stored frozen in 1 mM aliquots. For the assay, substrate and enzymes are diluted in HCBC buffer to the desired concentrations. Compounds are added to the 96 well plate containing enzyme and the reaction is started by the addition of substrate. […] For either the thiopeptide or fluorescent peptide assays, the slope of the line is calculated and represents the reaction rate. […] The mean (x±sem) of the control rate is calculated and compared for statistical significance (p<0.05) with drug-treated rates using Dunnett's multiple comparison test.
For assay [3], the target named is T1, MMP-1 (Homo sapiens, UniProt P03956).
T1 sequence (P03956 100-469): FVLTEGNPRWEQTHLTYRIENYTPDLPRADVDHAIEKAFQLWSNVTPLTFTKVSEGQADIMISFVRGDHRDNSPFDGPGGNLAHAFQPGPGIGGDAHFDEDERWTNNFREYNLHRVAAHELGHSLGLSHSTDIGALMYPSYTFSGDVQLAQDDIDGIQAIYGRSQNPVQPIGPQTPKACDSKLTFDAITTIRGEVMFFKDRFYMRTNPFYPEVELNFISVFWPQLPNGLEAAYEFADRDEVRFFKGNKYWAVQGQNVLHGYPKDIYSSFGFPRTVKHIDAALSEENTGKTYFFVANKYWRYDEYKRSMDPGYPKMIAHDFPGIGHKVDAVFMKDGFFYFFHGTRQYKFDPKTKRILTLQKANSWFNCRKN
As to the kind of experiment: MMP-1 inhibition (thiopeptide or fluorescent peptide substrate assay). Particulars: for IC50: read-out: MMP-1 IC50; for inhibition at 1 µM: read-out: MMP-1 % inhibition, footnote: 1µM.

Assay [4] deals with TACE (Homo sapiens, UniProt P78536). As to the kind of experiment: TACE inhibition (fluorescent peptidyl substrate). Particulars: for inhibition at 1 µM: at 1µM concentration.

Read-outs that look alike come from different tables or passages of the source.

As a reminder, the IC50 is the concentration that gives 50% inhibition. What is called inhibition is how much of the control response was suppressed.

Chain of MMP-9 (P14780 94-707): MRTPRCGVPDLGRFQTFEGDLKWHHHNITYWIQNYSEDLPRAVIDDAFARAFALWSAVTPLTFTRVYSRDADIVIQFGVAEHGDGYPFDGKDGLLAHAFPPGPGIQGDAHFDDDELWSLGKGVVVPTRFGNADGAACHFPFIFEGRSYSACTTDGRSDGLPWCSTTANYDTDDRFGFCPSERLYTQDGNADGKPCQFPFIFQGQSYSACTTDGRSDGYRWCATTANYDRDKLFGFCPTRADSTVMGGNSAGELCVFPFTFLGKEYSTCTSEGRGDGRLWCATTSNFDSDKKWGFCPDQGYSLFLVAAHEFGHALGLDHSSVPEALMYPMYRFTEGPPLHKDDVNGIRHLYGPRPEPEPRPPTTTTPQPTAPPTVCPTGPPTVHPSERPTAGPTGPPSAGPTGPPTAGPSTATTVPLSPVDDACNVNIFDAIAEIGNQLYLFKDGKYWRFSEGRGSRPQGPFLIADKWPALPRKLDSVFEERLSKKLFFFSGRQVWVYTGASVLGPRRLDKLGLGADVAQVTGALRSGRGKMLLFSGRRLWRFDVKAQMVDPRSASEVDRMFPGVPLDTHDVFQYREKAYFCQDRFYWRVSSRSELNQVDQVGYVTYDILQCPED
Chain of TACE (P78536 215-824): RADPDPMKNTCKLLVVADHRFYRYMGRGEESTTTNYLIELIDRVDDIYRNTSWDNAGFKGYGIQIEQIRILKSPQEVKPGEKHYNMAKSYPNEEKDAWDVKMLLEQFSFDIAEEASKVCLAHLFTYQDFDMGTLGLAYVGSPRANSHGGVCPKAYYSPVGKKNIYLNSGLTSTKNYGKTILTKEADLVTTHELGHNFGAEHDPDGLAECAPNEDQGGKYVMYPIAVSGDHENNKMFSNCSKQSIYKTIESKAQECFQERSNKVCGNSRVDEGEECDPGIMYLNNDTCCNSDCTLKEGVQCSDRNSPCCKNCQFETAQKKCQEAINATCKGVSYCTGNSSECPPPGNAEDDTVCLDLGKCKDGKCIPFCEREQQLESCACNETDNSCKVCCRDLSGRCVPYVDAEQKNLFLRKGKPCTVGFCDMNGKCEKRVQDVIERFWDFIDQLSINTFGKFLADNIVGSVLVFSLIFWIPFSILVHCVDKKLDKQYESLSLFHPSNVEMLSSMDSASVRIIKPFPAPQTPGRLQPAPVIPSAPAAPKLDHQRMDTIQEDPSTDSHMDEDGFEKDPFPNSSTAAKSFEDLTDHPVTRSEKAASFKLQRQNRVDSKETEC

Regarding `CCc1cc(C)c(N(Cc2cccnc2)S(=O)(=O)c2ccc(OC)cc2)c(C(=O)NO)c1` [Example 277, 5-Ethyl-N-hydroxy-2-[(4-methoxy-benzenesulfonyl)-pyridin-3-ylmethyl-amino]-3-methyl-benzamide], the 50% inhibitory concentration (IC50) in assay [1] (read-out: MMP-13 IC50) came to 4 nM; in assay [2], 4 nM; in assay [3] it was 56 nM; in assay [4] (read-out: TACE IC50), 34 nM.
As for `COc1ccc(S(=O)(=O)N(Cc2cccnc2)c2c(C)cc(-c3cccnc3)cc2C(=O)NO)cc1` [Example 285, N-Hydroxy-2-[(4-methoxy-benzenesulfonyl)-pyridin-3-ylmethyl-amino]-3-methyl-5-pyridin-3-yl-benzamide], the half-inhibitory concentration (IC50) in assay [1] (read-out: MMP-13 IC50) turned out to be 9.8 nM; in assay [2], 6 nM; in assay [3], 312 nM; in assay [4] (read-out: TACE IC50), 61 nM.
In the case of `COc1ccc(S(=O)(=O)N(Cc2ccccc2)c2c(C)ccc(C)c2C(=O)NO)cc1` [Example 292, 2-[Benzyl-(4-methoxy-benzenesulfonyl)-amino]-N-hydroxy-3,6-dimethyl-benzamide], the concentration for half-maximal inhibition (IC50) in assay [1] (read-out: MMP-13 IC50) is 29 nM; in assay [2] it was 8 nM; in assay [3], 184 nM. In assay [4], at 1 µM the inhibition was 7%.
With `COc1ccc(S(=O)(=O)N(Cc2cccnc2)c2c(C)ccc(C)c2C(=O)NO)cc1` [Example 297, N-Hydroxy-2-[(4-methoxy-benzenesulfonyl)-pyridin-3-ylmethyl-amino]-3,6-dimethyl-benzamide], the half-maximal inhibitory concentration (IC50) in assay [1] (read-out: MMP-13 IC50) came out at 14 nM; in assay [2] it was 9 nM; in assay [3] it was 297 nM. In assay [4], this compound showed an inhibition at 1 µM of 58%.
Take `COc1ccc(S(=O)(=O)N(Cc2cccnc2)c2c(C)cc(-c3cc(-c4ccc(C)o4)no3)cc2C(=O)NO)cc1` [Example 301, N-Hydroxy-2-[(4-methoxy-benzenesulfonyl)-pyridin-3-ylmethyl-amino]-3-methyl-5-[3-(5-methyl-furan-2-yl)-isoxazol-5-yl]-benzamide]: the IC50 in assay [1] (read-out: MMP-13 IC50) came to 8.7 nM; in assay [2] it was 6.9 nM; in assay [3] it was 211 nM; in assay [4] (read-out: TACE IC50), 1480 nM.
With `Cc1cc(Br)cc(C(=O)NO)c1N(Cc1ccccc1)S(=O)(=O)c1ccc(OCc2ccccc2)cc1` [Example 308], the inhibition at 1 µM was 36% in assay [1], 45% in assay [2] and 10% in assay [3]. Also, in assay [4] (read-out: TACE IC50), the IC50 is 285 nM.
Regarding `COc1ccc(S(=O)(=O)N(C)c2c(CN3CCOCC3)cccc2C(=O)NO)cc1` [Example 309, N-Hydroxy-2-[(4-methoxy-benzenesulfonyl)-methyl-amino]-3-morpholin-4-ylmethyl-benzamide], the half-maximal inhibitory concentration (IC50) in assay [1] came out at 14 nM; in assay [2] it was 5 nM; in assay [3], 608 nM; in assay [4], 174 nM.
With `COc1ccc(S(=O)(=O)N(C)c2c(CN3CCCC3)cccc2C(=O)NO)cc1` [Example 310, N-Hydroxy-2-[(4-methoxy-benzenesulfonyl)-methyl-amino]-3-pyrrolidin-1-ylmethyl-benzamide], the concentration for half-maximal inhibition (IC50) in assay [1] (read-out: MMP-13 IC50) came out at 101 nM; in assay [2], 21 nM; in assay [3], 4800 nM; in assay [4] (read-out: TACE IC50), 154 nM.
Regarding `COc1ccc(S(=O)(=O)N(C)c2c(Cn3ccnc3)cccc2C(=O)NO)cc1` [Example 311, N-Hydroxy-3-imidazol-1-ylmethyl-2-[(4-methoxy-benzenesulfonyl)-methyl-amino]-benzamide], the concentration for half-maximal inhibition (IC50) in assay [1] came to 43 nM; in assay [2] it was 10 nM; in assay [3], 781 nM; in assay [4], 157 nM.
For the compound `COc1ccc(S(=O)(=O)N(C)c2c(CN3CCCC3)cc(Br)cc2C(=O)NO)cc1` [Example 314, 5-Bromo-N-hydroxy-2-[(4-methoxy-benzenesulfonyl)-methylamino]-3-pyrrolidin-1-ylmethyl-benzamide], the IC50 is 13 nM in assay [1] (read-out: MMP-13 IC50), 8.4 nM in assay [2], 954 nM in assay [3] and 27 nM in assay [4] (read-out: TACE IC50).
Regarding `COc1ccc(S(=O)(=O)N(Cc2cccnc2)c2c(CN3CCCC3)cccc2C(=O)NO)cc1` [Example 320, N-Hydroxy-2-[(4-methoxy-benzenesulfonyl)-pyridin-3-ylmethyl-amino]-3-pyrrolidin-1-ylmethyl-benzamide], the concentration for half-maximal inhibition (IC50) in assay [1] (read-out: MMP-13 IC50) worked out at 150 nM; in assay [2] it was 46 nM; in assay [3], 2190 nM; in assay [4] (read-out: TACE IC50) it was 142 nM.
Take `CCCCCCCCN(c1c(CN2CCN(C)CC2)cccc1C(=O)NO)S(=O)(=O)c1ccc(OC)cc1` [Example 325, N-Hydroxy-2-[(4-methoxy-benzenesulfonyl)-octyl-amino]-3-(4-methyl-piperazin-1-ylmethyl)-benzamide]: the inhibition at 1 µM in assay [1] was determined as 60%; in assay [2] it was 49%; in assay [3], 15%; in assay [4] it was 47%. Besides, the concentration for half-maximal inhibition (IC50) in assay [1] (read-out: MMP-13 IC50) stood at 1.9 nM; in assay [2] it was 2.4 nM; in assay [4] (read-out: TACE IC50), 1640 nM.
Regarding `COc1ccc(S(=O)(=O)N(Cc2ccsc2)c2c(CN3CCN(C)CC3)cccc2C(=O)NO)cc1` [Example 328, N-Hydroxy-2-[(4-methoxy-benzenesulfonyl)-thiophen-3-ylmethyl-amino]-3-(4-methyl-piperazin-1-ylmethyl)-benzamide], the IC50 in assay [1] (read-out: MMP-13 IC50) was found to be 13 nM; in assay [2], 4.9 nM; in assay [3], 326 nM; in assay [4] (read-out: TACE IC50) it was 263 nM.
Turning to `COc1ccc(S(=O)(=O)N(Cc2ccccc2)c2c(CN3CCN(C)CC3)cccc2C(=O)NO)cc1` [Example 329, N-Hydroxy-2-[[(4-methoxyphenyl)sulfonyl](phenylmethyl)-amino]-3-[(4-methyl-1-piperazinyl)methyl]benzamide], the half-inhibitory concentration (IC50) in assay [1] (read-out: MMP-13 IC50) was determined as 23 nM; in assay [2] it was 6.1 nM; in assay [3], 319 nM; in assay [4] (read-out: TACE IC50) it was 173 nM.
As to `COc1ccc(S(=O)(=O)N(Cc2cccnc2)c2c(COC3CCCCO3)cccc2C(=O)NO)cc1` (stereo not shown) [Example 339, N-Hydroxy-2-[(4-methoxy-benzenesulfonyl)-pyridin-3-ylmethyl-amino]-3-(tetrahydro-pyran-2-yloxymethyl)-benzamide], the IC50 in assay [1] (read-out: MMP-13 IC50) turned out to be 5.7 nM; in assay [2], 5.2 nM; in assay [3] it was 216 nM; in assay [4] (read-out: TACE IC50), 564 nM.
Consider `COc1ccc(S(=O)(=O)N(Cc2cccnc2)c2c(CO)cccc2C(=O)NO)cc1` [Example 340, N-Hydroxy-3-hydroxymethyl-2-[(4-methoxy-benzenesulfonyl)-pyridin-3-ylmethyl-amino]-benzamide], for which the IC50 came to 30 nM in assay [1] (read-out: MMP-13 IC50), 11 nM in assay [2], 522 nM in assay [3] and 110 nM in assay [4] (read-out: TACE IC50).
On to `COc1ccc(S(=O)(=O)N(Cc2ccccc2)c2c(OCCO[Si](C)(C)C(C)(C)C)cccc2C(=O)NO)cc1` [Example 344, 2-[Benzyl-(4-methoxy-benzenesulfonyl)-amino]-3-[2-(tert-butyl-dimethyl-silanyloxy)-ethoxy]-N-hydroxy-benzamide], for which the IC50 in assay [1] (read-out: MMP-13 IC50) turned out to be 320 nM; in assay [2], 69 nM; in assay [3], 1170 nM; in assay [4] (read-out: TACE IC50) it was 529 nM.
The matching figures for `COc1ccc(S(=O)(=O)N(Cc2ccccc2)c2c(OCCO)cccc2C(=O)NO)cc1` [Example 345, 2-[Benzyl-(4-methoxy-benzenesulfonyl)-amino]-N-hydroxy-3-(2-hydroxy-ethoxy)-benzamide]: 134 nM, 31 nM, 1160 nM and 523 nM.
On to `COc1ccc(S(=O)(=O)N(C)c2c(CCC(=O)NO)cc(Br)cc2C(=O)NO)cc1` [Example 349, 5-Bromo-N-hydroxy-3-[2-(hydroxycarbamoyl)-ethyl]-2-[(4-methoxy-benzenesulfonyl)-methyl-amino]-benzamide], for which the IC50 in assay [1] (read-out: MMP-13 IC50) amounted to 9 nM; in assay [2] it was 8 nM; in assay [3], 396 nM; in assay [4] (read-out: TACE IC50) it was 32 nM.
Consider `COc1ccc(S(=O)(=O)N(C)c2c(CCC(=O)NO)cccc2C(=O)NO)cc1` [Example 350], for which the IC50 in assay [1] (read-out: MMP-13 IC50) came out at 21 nM; in assay [2], 5 nM; in assay [3], 450 nM; in assay [4] (read-out: TACE IC50), 373 nM.
In the case of `COc1ccc(S(=O)(=O)N(C)c2c(C)cc(C#Cc3ccc(-c4ccccc4)cc3)cc2C(=O)NO)cc1` [Example 353, 5-Biphenyl-4-ylethynyl-N-hydroxy-2-[(4-methoxy-benzenesulfonyl)-methyl-amino]-3-methyl-benzamide], the half-maximal inhibitory concentration (IC50) worked out at 141 nM in assay [1] (read-out: MMP-13 IC50), 61 nM in assay [2] and 780 nM in assay [4] (read-out: TACE IC50). In assay [3], the inhibition at 1 µM turned out to be 23%.
For `COc1ccc(S(=O)(=O)N(C)c2c(C)cc(CCc3ccc(-c4ccccc4)cc3)cc2C(=O)NO)cc1` [Example 355, 5-(2-Biphenyl-4-yl-ethyl)-N-hydroxy-2-[(4-methoxy-benzenesulfonyl)-methyl-amino]-3-methyl-benzamide], the IC50 in assay [1] (read-out: MMP-13 IC50) was 20 nM; in assay [2] it was 28 nM; in assay [3], 701 nM; in assay [4] (read-out: TACE IC50) it was 288 nM.

These data come from patent EP0938471B1, “THE PREPARATION AND USE OF ORTHO-SULFONAMIDO ARYL HYDROXAMIC ACIDS AS MATRIX METALLOPROTEINASE AND TACE INHIBITORS” (priority 1996, dated 1998).
